US8952024B2, “Herbicidal pyrimidone derivatives” (E I du Pont de Nemours and Company, priority 2009, dated 2015)

Key:
Type in all cases: in vivo
[1] = tested on: morningglory (Ipomoea spp.); assay: Test A pre-/postemergence plant response
Method in brief: (§1)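 Plants grown from seed in a loam soil and sand mix received test compounds both as a preemergence soil spray and, at the same time, as a postemergence spray at the one- to two-leaf stage. Injury was judged visually against untreated controls roughly ten days later, 0 meaning no effect and 100 complete control.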

[2] = tested on: pigweed (Amaranthus retroflexus); assay: Test A pre-/postemergence plant response
Method in brief: as §1

[3] = tested on: barnyardgrass (Echinochloa crus-galli); assay: Test A pre-/postemergence plant response
Method in brief: as §1

[4] = tested on: velvetleaf (Abutilon theophrasti); assay: Test A pre-/postemergence plant response
Method in brief: as §1

corn (Zea mays) = assay: Test A pre-/postemergence plant response
Method in brief: as §1

[5] = tested on: wheat (Triticum aestivum); assay: Test A pre-/postemergence plant response
Method in brief: as §1

[6] = tested on: large crabgrass (Digitaria sanguinalis); assay: Test A pre-/postemergence plant response
Method in brief: as §1

[7] = tested on: giant foxtail (Setaria faberii); assay: Test A pre-/postemergence plant response
Method in brief: as §1

[8] = tested on: cocklebur (Xanthium strumarium); assay: Test B pre-/postemergence plant response; settings: for Cocklebur plant response rating (0 to 100 scale): 0 is no effect
Method in brief: (§2)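 Compound in solvent + surfactant applied pre-em (loam/sand) or post-em (plants 2–18 cm, peat medium); greenhouse hold 13–15 days; visual 0–100 control score.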

[9] = tested on: bermudagrass (Cynodon dactylon); assay: Test B pre-/postemergence plant response; settings: for Bermudagrass plant response rating (0 to 100 scale): 0 is no effect
Method in brief: as §2

[10] = tested on: wheat (Triticum aestivum); assay: Test B pre-/postemergence plant response; settings: for Wheat plant response rating (0 to 100 scale): 0 is no effect
Method in brief: as §2

[11] = Postemergence, 125 g ai/ha, 0 to 100 scale where 0 is no effect and 100 is complete control
[12] = Postemergence, 500 g ai/ha, 0 to 100 scale, 0 = no effect, 100 = complete control, approx. ten days
[13] = Preemergence, 125 g ai/ha, 0 to 100 scale, 0 = no effect, 100 = complete control
[14] = Preemergence, 500 g ai/ha, visual injury, 0 to 100 scale (0 no effect, 100 complete control), approx. ten days
[15] = 31 g ai/ha, postemergence, scale 0 to 100, 0 is no effect, 100 is complete control
[16] = 62 g ai/ha, postemergence, 100 is complete control, 13 to 15 days
[17] = Postemergence, 125 g ai/ha, visual rating after 13 to 15 days, scale 0 (no effect) to 100 (complete control)
[18] = Postemergence, 250 g ai/ha, scale 0 to 100 (0 no effect, 100 complete control)
[19] = Postemergence, 125 g ai/ha, visual injury, 0 to 100 scale (0 no effect, 100 complete control), approx. ten days
[20] = 250 g ai/ha, Preemergence, 0 to 100 scale
[21] = Postemergence, 62 g ai/ha, scale 0 (no effect) to 100 (complete control), 13 to 15 days
[22] = Postemergence, 250 g ai/ha, scale 0 to 100
[23] = Preemergence, 31 g ai/ha, scale 0 to 100 (0 no effect, 100 complete control)
[24] = Preemergence, 62 g ai/ha, scale 0 to 100, 0 no effect, 100 complete control
[25] = Preemergence, 125 g ai/ha, 0 to 100 scale
[26] = Postemergence, 31 g ai/ha, scale 0 to 100 (0 no effect, 100 complete control)

CCCn1c(-c2ccsc2)ncc(C(=O)C2=C(O)CCCC2=O)c1=O [Compound 93]
Plant response rating, Morningglory [1, 11]: 100
Plant response rating, Morningglory [1, 12]: 100
Plant response rating, Morningglory [1, 13]: 80
Plant response rating, Morningglory [1, 14]: 90
Plant response rating, Pigweed [2, 11]: 100
Plant response rating, Pigweed [2, 12]: 100
Plant response rating, Pigweed [2, 13]: 100
Plant response rating, Pigweed [2, 14]: 100
Plant response rating, Barnyardgrass [3, 11]: 90
Plant response rating, Barnyardgrass [3, 12]: 90
Plant response rating, Barnyardgrass [3, 13]: 80
Plant response rating, Barnyardgrass [3, 14]: 100
Plant response rating, Velvetleaf [4, 11]: 100
Plant response rating, Velvetleaf [4, 12]: 100
Plant response rating, Velvetleaf [4, 13]: 90
Plant response rating, Velvetleaf [4, 14]: 100
Plant response rating, Corn (corn (Zea mays); [11]): 10
Plant response rating, Corn (corn (Zea mays); [12]): 30
Plant response rating, Corn (corn (Zea mays); [13]): 0
Plant response rating, Corn (corn (Zea mays); [14]): 0
Plant response rating, Wheat [5, 11]: 0
Plant response rating, Wheat [5, 12]: 0
Plant response rating, Wheat [5, 13]: 0
Plant response rating, Wheat [5, 14]: 0
Plant response rating, Crabgrass, Large [6, 11]: 90
Plant response rating, Crabgrass, Large [6, 12]: 100
Plant response rating, Crabgrass, Large [6, 13]: 90
Plant response rating, Crabgrass, Large [6, 14]: 100
Plant response rating, Foxtail, Giant [7, 11]: 80
Plant response rating, Foxtail, Giant [7, 12]: 90
Plant response rating, Foxtail, Giant [7, 13]: 60
Plant response rating, Foxtail, Giant [7, 14]: 80
Plant response rating, Cocklebur [8, 15]: 70
Cocklebur plant response rating (0 to 100 scale) [8, 16]: 90
Plant response rating, Cocklebur [8, 17]: 95
Plant response rating, Cocklebur [8, 18]: 98
Plant response rating, Bermudagrass [9, 15]: 60
Bermudagrass plant response rating (0 to 100 scale) [9, 16]: 75
Plant response rating, Bermudagrass [9, 17]: 85
Plant response rating, Bermudagrass [9, 18]: 85
Plant response rating, Wheat [10, 15]: 0
Wheat plant response rating (0 to 100 scale) [10, 16]: 0
Plant response rating, Wheat [10, 18]: 5

O=C1CCCC(O)=C1C(=O)c1cnc(C2CC2)n(-c2ccccc2)c1=O [Compound 87]
Plant response rating, Morningglory [1, 11]: 90
Plant response rating, Morningglory [1, 12]: 100
Plant response rating, Morningglory [1, 13]: 50
Plant response rating, Morningglory [1, 14]: 80
Plant response rating, Pigweed [2, 11]: 100
Plant response rating, Pigweed [2, 12]: 100
Plant response rating, Barnyardgrass [3, 11]: 80
Plant response rating, Barnyardgrass [3, 12]: 90
Plant response rating, Barnyardgrass [3, 13]: 20
Plant response rating, Barnyardgrass [3, 14]: 90
Plant response rating, Velvetleaf [4, 11]: 100
Plant response rating, Velvetleaf [4, 12]: 100
Plant response rating, Velvetleaf [4, 13]: 100
Plant response rating, Velvetleaf [4, 14]: 100
Plant response rating, Corn (corn (Zea mays); [11]): 10
Plant response rating, Corn (corn (Zea mays); [12]): 50
Plant response rating, Corn (corn (Zea mays); [13]): 0
Plant response rating, Corn (corn (Zea mays); [14]): 0
Plant response rating, Wheat [5, 11]: 30
Plant response rating, Wheat [5, 12]: 60
Plant response rating, Wheat [5, 13]: 10
Plant response rating, Wheat [5, 14]: 40
Plant response rating, Crabgrass, Large [6, 11]: 90
Plant response rating, Crabgrass, Large [6, 12]: 90
Plant response rating, Crabgrass, Large [6, 14]: 100
Plant response rating, Foxtail, Giant [7, 11]: 70
Plant response rating, Foxtail, Giant [7, 12]: 90
Plant response rating, Foxtail, Giant [7, 14]: 80
Plant response rating, Cocklebur [8, 15]: 98
Cocklebur plant response rating (0 to 100 scale) [8, 16]: 100
Plant response rating, Cocklebur [8, 17]: 100
Plant response rating, Cocklebur [8, 18]: 100
Plant response rating, Bermudagrass [9, 15]: 90
Bermudagrass plant response rating (0 to 100 scale) [9, 16]: 90
Plant response rating, Bermudagrass [9, 17]: 98
Plant response rating, Bermudagrass [9, 18]: 100
Plant response rating, Wheat [10, 15]: 35
Wheat plant response rating (0 to 100 scale) [10, 16]: 35
Plant response rating, Wheat [10, 18]: 50

CCn1c(-c2ccccc2)ncc(C(=O)C2=C(O)CCCC2=O)c1=O [Compound 49]
Morningglory plant response rating [1, 19]: 100
Plant response rating, Morningglory [1, 12]: 100
Plant response rating, Morningglory [1, 13]: 30
Plant response rating, Morningglory [1, 14]: 80
Pigweed plant response rating [2, 19]: 100
Plant response rating, Pigweed [2, 12]: 100
Plant response rating, Pigweed [2, 13]: 80
Plant response rating, Pigweed [2, 14]: 90
Barnyardgrass plant response rating [3, 19]: 60
Plant response rating, Barnyardgrass [3, 12]: 90
Plant response rating, Barnyardgrass [3, 13]: 20
Plant response rating, Barnyardgrass [3, 14]: 60
Velvetleaf plant response rating [4, 19]: 100
Plant response rating, Velvetleaf [4, 12]: 100
Plant response rating, Velvetleaf [4, 13]: 80
Plant response rating, Velvetleaf [4, 14]: 90
Corn plant response rating (corn (Zea mays); [19]): 0
Plant response rating, Corn (corn (Zea mays); [12]): 20
Plant response rating, Corn (corn (Zea mays); [13]): 0
Plant response rating, Corn (corn (Zea mays); [14]): 0
Wheat plant response rating [5, 19]: 0
Plant response rating, Wheat [5, 12]: 0
Plant response rating, Wheat [5, 13]: 0
Plant response rating, Wheat [5, 14]: 0
Crabgrass, Large plant response rating [6, 19]: 90
Plant response rating, Crabgrass, Large [6, 12]: 90
Plant response rating, Crabgrass, Large [6, 13]: 60
Plant response rating, Crabgrass, Large [6, 14]: 90
Foxtail, Giant plant response rating [7, 19]: 50
Plant response rating, Foxtail, Giant [7, 12]: 80
Plant response rating, Foxtail, Giant [7, 13]: 20
Plant response rating, Foxtail, Giant [7, 14]: 50
Plant response rating, Cocklebur [8, 15]: 65
Plant response rating, Cocklebur [8, 20]: 55
Plant response rating, Cocklebur [8, 21]: 80
Plant response rating, Cocklebur [8, 17]: 80
Cocklebur plant response rating [8, 22]: 85
Plant response rating, Cocklebur [8, 23]: 0
Plant response rating, Cocklebur [8, 24]: 20
Cocklebur plant response rating [8, 25]: 45
Plant response rating, Bermudagrass [9, 15]: 75
Plant response rating, Bermudagrass [9, 20]: 100
Plant response rating, Bermudagrass [9, 21]: 85
Plant response rating, Bermudagrass [9, 17]: 95
Bermudagrass plant response rating [9, 22]: 98
Bermudagrass plant response rating [9, 25]: 98
Plant response rating, Wheat [10, 15]: 0
Plant response rating, Wheat [10, 20]: 0
Plant response rating, Wheat [10, 21]: 5
Plant response rating, Wheat [10, 17]: 15
Plant response rating, Wheat [10, 23]: 0
Wheat plant response rating [10, 25]: 0

5-[(2-hydroxy-6-oxo-1-cyclohexen-1-yl)carbonyl]-3-(2-methoxyethyl)-2-(3-thienyl)-4(3H)-pyrimidinone [Compound 97]
Morningglory plant response rating [1, 19]: 100
Plant response rating, Morningglory [1, 12]: 100
Plant response rating, Morningglory [1, 13]: 10
Plant response rating, Morningglory [1, 14]: 90
Pigweed plant response rating [2, 19]: 100
Plant response rating, Pigweed [2, 12]: 100
Plant response rating, Pigweed [2, 13]: 100
Plant response rating, Pigweed [2, 14]: 100
Barnyardgrass plant response rating [3, 19]: 90
Plant response rating, Barnyardgrass [3, 12]: 90
Plant response rating, Barnyardgrass [3, 13]: 30
Plant response rating, Barnyardgrass [3, 14]: 90
Velvetleaf plant response rating [4, 19]: 100
Plant response rating, Velvetleaf [4, 12]: 100
Plant response rating, Velvetleaf [4, 13]: 90
Plant response rating, Velvetleaf [4, 14]: 100
Corn plant response rating (corn (Zea mays); [19]): 30
Plant response rating, Corn (corn (Zea mays); [12]): 90
Plant response rating, Corn (corn (Zea mays); [13]): 0
Plant response rating, Corn (corn (Zea mays); [14]): 0
Wheat plant response rating [5, 19]: 40
Plant response rating, Wheat [5, 12]: 60
Plant response rating, Wheat [5, 13]: 0
Plant response rating, Wheat [5, 14]: 50
Crabgrass, Large plant response rating [6, 19]: 90
Plant response rating, Crabgrass, Large [6, 12]: 100
Plant response rating, Crabgrass, Large [6, 13]: 90
Plant response rating, Crabgrass, Large [6, 14]: 100
Foxtail, Giant plant response rating [7, 19]: 90
Plant response rating, Foxtail, Giant [7, 12]: 100
Plant response rating, Foxtail, Giant [7, 13]: 70
Plant response rating, Foxtail, Giant [7, 14]: 100
Plant response rating, Cocklebur [8, 20]: 98
Plant response rating, Cocklebur [8, 26]: 70
Plant response rating, Cocklebur [8, 21]: 90
Plant response rating, Cocklebur [8, 17]: 95
Cocklebur plant response rating [8, 22]: 98
Plant response rating, Cocklebur [8, 23]: 0
Plant response rating, Cocklebur [8, 24]: 15
Cocklebur plant response rating [8, 25]: 65
Plant response rating, Bermudagrass [9, 20]: 100
Plant response rating, Bermudagrass [9, 26]: 70
Plant response rating, Bermudagrass [9, 21]: 75
Plant response rating, Bermudagrass ([9]; Postemergence, 125 g ai/ha, scale 0 to 100 (0 no effect, 100 complete control), 13 to 15 days): 90
Bermudagrass plant response rating [9, 22]: 95
Plant response rating, Bermudagrass [9, 23]: 45
Plant response rating, Bermudagrass [9, 24]: 80
Bermudagrass plant response rating [9, 25]: 100
Plant response rating, Wheat [10, 20]: 5
Plant response rating, Wheat [10, 26]: 0
Plant response rating, Wheat [10, 21]: 0
Plant response rating, Wheat [10, 17]: 0
Wheat plant response rating [10, 22]: 5
Plant response rating, Wheat [10, 23]: 0
Wheat plant response rating [10, 25]: 0
